The record followed here is US11352350B2, “IRAK degraders and uses thereof” (Kymera Therapeutics, Inc., priority 2018, dated 2022).

The subject of assay [1] is IL-6. In words: IL-6 secretion in hPBMC using R848 stimulation. It counts as cell-based, human. The note with it: Homo sapiens, 20 h.
The target of assay [2] is T1, IRAK4 (Homo sapiens (Human), UniProt Q9NWZ3). Description: hPBMC IRAK4 degradation flow assay. It counts as cell-based. The conditions noted are these: hPBMC monocyte. The method, boiled down:
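Thawed human PBMCs treated with 10-point, 5-fold compound dilutions (0.1% DMSO) at 37° C. for 20 hours or 4 hours. IRAK4 measured by flow MFI in CD14+ monocytes and CD14− lymphocytes, normalized to DMSO and 10 μM 20-hour control; DC50 and max degradation from 4-parameter logistic fit.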

The target of assay [3] is T1, IRAK4. In words: IRAK4 MSD degradation in OCI-LY10. It counts as cell-based. The conditions noted are these: OCI-LY10, 4 hrs; read-out: IRAK4 MSD degradation in OCI-LY10 at 4 hrs: DC50. The procedure, abridged: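 OCI-LY10 cells treated with 8-point 1:3 dilutions (top 1 to 10 μM final) for 4 to 24 h at 37° C. Lysate IRAK4 measured by MSD sandwich immunoassay (2H9 capture, Y279 detection, SULFO-TAG anti-rabbit). DC50 from three-parameter logistic fit.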

The subject of assay [4] is OCI-LY10. In words: CTG Cell Viability Assay - OCI-LY10. It counts as cell-based, human. The note with it: Homo sapiens, OCI-LY10, 4 days, read-out: CTG Cell Viability Assay - OCI-LY10: Average external-IC50. The procedure, abridged: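 OCI-LY10 cells exposed to 9-dose, 1:3 dilutions from 10 μM top (0.2% DMSO) for 4 days at 37° C, 5% CO2. Viability by CellTiter-Glo luminescence; IC50 from three-parameter logistic fit.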

Setting [5] is: 20 hr, flow assay, read-out: IRAK4 degradation in hPBMC monocyte at 20 hr: Average external Abs DC50.
[6] abbreviates: 20 hrs, read-out: IRAK4 degradation in hPBMC monocyte: DC50.

The term IC50 denotes the midpoint of a concentration-inhibition curve. A word on the DC50: it is the midpoint of the concentration-degradation curve.

Molecules are shown by their SMILES. Read-outs that look alike come from different tables or passages of the source.

T1 sequence (Q9NWZ3 whole entry): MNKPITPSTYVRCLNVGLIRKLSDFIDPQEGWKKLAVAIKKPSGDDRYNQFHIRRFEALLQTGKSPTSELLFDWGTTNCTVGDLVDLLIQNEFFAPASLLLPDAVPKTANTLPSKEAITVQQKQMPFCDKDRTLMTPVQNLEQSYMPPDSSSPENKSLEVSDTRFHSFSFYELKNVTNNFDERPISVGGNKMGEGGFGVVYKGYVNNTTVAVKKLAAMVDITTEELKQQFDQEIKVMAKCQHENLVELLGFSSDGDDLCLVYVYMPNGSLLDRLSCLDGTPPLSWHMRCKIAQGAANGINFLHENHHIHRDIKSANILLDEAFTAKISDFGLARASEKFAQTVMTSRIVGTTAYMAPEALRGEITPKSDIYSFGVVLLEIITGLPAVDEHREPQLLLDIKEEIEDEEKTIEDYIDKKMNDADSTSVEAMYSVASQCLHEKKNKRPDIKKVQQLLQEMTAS

In assay [1] (hPBMC, R848 as stim, t = 20 h), `Cn1c(=O)n(C2CCC(=O)NC2=O)c2cccc(CCCC3CCN(Cc4ccc(C5N=C(NC(=O)c6cnn7ccc(N8C[C@H]9C[C@@H]8CO9)nc67)C(C(F)F)=N5)cc4)CC3)c21` (stereo partly drawn) [I-428] had a concentration for half-maximal inhibition (IC50) of 0.001 to 0.01 µM. The DC50 in assay [2] (setting [5]) is under 0.01 µM.

`Cn1c(=O)n(C2CCC(=O)NC2=O)c2cccc(CCCOC[C@H]3CN(C[C@H]4CC[C@H](n5cc(NC(=O)c6cnn7ccc(N8CCOCC8)nc67)c(C(F)F)n5)CC4)CCO3)c21` (stereo partly drawn) [I-430] yielded an IC50 in assay [1] (hPBMC, R848 as stim, t = 20 h) of 0.001 to 0.01 µM. In addition, the DC50 in assay [2] (setting [5]) is under 0.01 µM.

As to `Cn1c(=O)n(C2CCC(=O)NC2=O)c2cccc(CCCN3CCOC4(CCN(C(=O)[C@H]5CC[C@H](n6cc(NC(=O)c7cnn8ccc(N9C[C@H]%10C[C@@H]9CO%10)nc78)c(C(F)F)n6)CC5)CC4)C3)c21` (stereo partly drawn) [I-431], the IC50 in assay [1] (hPBMC, R848 as stim, t = 20 h) was under 0.001 µM. Besides, the DC50 in assay [2] (setting [5]) is under 0.01 µM.

In turn, `Cn1c(=O)n(C2CCC(=O)NC2=O)c2cccc(CN3CCC4(CC3)CCN(C(=O)c3ccc(C5N=C(NC(=O)c6cnn7ccc(N8C[C@H]9C[C@@H]8CO9)nc67)C(C(F)F)=N5)cc3)CC4)c21` (stereo partly drawn) [I-432] returned an IC50 in assay [1] (hPBMC, R848 as stim, t = 20 h) of 0.001 to 0.01 µM. The DC50 in assay [2] (setting [5]) was under 0.01 µM.

Consider `Cn1c(=O)n(C2CCC(=O)NC2=O)c2ccc(CCCN3CC4(CCN(C(=O)c5ccc(C6N=C(NC(=O)c7cnn8ccc(N9C[C@H]%10C[C@@H]9CO%10)nc78)C(C(F)F)=N6)cc5)CC4)C3)cc21` (stereo partly drawn) [I-433], for which the IC50 in assay [1] (hPBMC, R848 as stim, t = 20 h) was under 0.001 µM. Besides, the DC50 in assay [2] (setting [5]) is under 0.01 µM.

Compound `Cn1c(=O)n(C2CCC(=O)NC2=O)c2cccc(CCCN3CCOC4(CCN(C[C@H]5CC[C@H](n6cc(NC(=O)c7cnn8ccc(N9C[C@H]%10C[C@@H]9CO%10)nc78)c(C(F)F)n6)CC5)CC4)C3)c21` (stereo partly drawn) [I-434] registered an IC50 in assay [1] (hPBMC, R848 as stim, t = 20 h) of under 0.001 µM. The 50% degradation concentration (DC50) in assay [2] (setting [5]) is under 0.01 µM.

`Cn1c(=O)n(C2CCC(=O)NC2=O)c2cccc(C#CCCCOC[C@H]3CC[C@H](n4cc(NC(=O)c5cnn6ccc(N7C[C@H]8C[C@@H]7CO8)nc56)c(C(F)F)n4)CC3)c21` (stereo partly drawn) [I-446] returned an IC50 in assay [1] (hPBMC, R848 as stim, t = 20 h) of 0.01 to 0.1 µM.

As for `Cn1c(=O)n(C2CCC(=O)NC2=O)c2cccc(CN3CC4(CCN(Cc5ccc(-n6cc(NC(=O)c7cnn8ccc(N9C[C@H]%10C[C@@H]9CO%10)nc78)c(C(F)F)n6)cc5)CC4)C3)c21` (stereo partly drawn) [I-464], the DC50 in assay [3] and in assay [2] (setting [6]) was 0.01 to 0.1 µM each time. Further, the IC50 in assay [1] (hPBMC, R848 as stim, t = 20 h) is 0.001 to 0.01 µM.

On to `CN(C[C@H]1CC[C@H](n2cc(NC(=O)c3cnn4ccc(N5C[C@H]6C[C@@H]5CO6)nc34)c(C(F)F)n2)CC1)C1CCN(Cc2cccc3c2n(C)c(=O)n3C2CCC(=O)NC2=O)CC1` (stereo partly drawn) [I-465], for which the DC50 in assay [3] and in assay [2] (setting [6]) was under 0.01 µM each time. Also, the IC50 in assay [1] (hPBMC, R848 as stim, t = 20 h) is under 0.001 µM.

Turning to `Cn1c(=O)n(C2CCC(=O)NC2=O)c2cccc(CC3CC4(CCN(Cc5ccc(-n6cc(NC(=O)c7cnn8ccc(N9C[C@H]%10C[C@@H]9CO%10)nc78)c(C(F)F)n6)cc5)CC4)C3)c21` (stereo partly drawn) [I-466], the 50% degradation concentration (DC50) in assay [3] was 0.1 to 1 µM; in assay [2] (setting [6]) it was under 0.01 µM. Moreover, in assay [1] (hPBMC, R848 as stim, t = 20 h), the IC50 was in the range of 0.001 to 0.01 µM.

`Cn1c(=O)n(C2CCC(=O)NC2=O)c2cccc(CCC(=O)N3CCC4(CCN(C[C@H]5CC[C@H](n6cc(NC(=O)c7cnn8ccc(N9C[C@H]%10C[C@@H]9CO%10)nc78)c(C(F)F)n6)CC5)CC4)CC3)c21` (stereo partly drawn) [I-467]: the DC50 in assay [3] and in assay [2] (setting [6]) was under 0.01 µM in each case. In assay [1] (hPBMC, R848 as stim, t = 20 h), this compound displayed an IC50 of under 0.001 µM.

In the case of `Cn1c(=O)n(C2CCC(=O)NC2=O)c2cccc(CCOC3CC4(CCN(C[C@H]5CC[C@H](n6cc(NC(=O)c7cnn8ccc(N9C[C@H]%10C[C@@H]9CO%10)nc78)c(C(F)F)n6)CC5)CC4)C3)c21` (stereo partly drawn) [I-469], the half-maximal degradation concentration (DC50) in assay [3] and in assay [2] (setting [6]) was under 0.01 µM each time. Besides, the IC50 in assay [1] (hPBMC, R848 as stim, t = 20 h) was under 0.001 µM.

As for `Cn1c(=O)n(C2CCC(=O)NC2=O)c2cccc(CCCCN3CCN(C[C@H]4CC[C@H](n5cc(NC(=O)c6cnn7ccc(N8C[C@H]9C[C@@H]8CO9)nc67)c(C(F)F)n5)CC4)CC3)c21` (stereo partly drawn) [I-471], the DC50 in assay [3] and in assay [2] (setting [6]) was under 0.01 µM in each case. In assay [1] (hPBMC, R848 as stim, t = 20 h), this compound displayed an IC50 of under 0.001 µM.

With `Cn1c(=O)n(C2CCC(=O)NC2=O)c2cccc(CCCCN3CCN(C(=O)[C@H]4CC[C@H](n5cc(NC(=O)c6cnn7ccc(N8C[C@H]9C[C@@H]8CO9)nc67)c(C(F)F)n5)CC4)CC3)c21` (stereo partly drawn) [I-472], the 50% degradation concentration (DC50) in assay [3] and in assay [2] (setting [6]) was under 0.01 µM throughout. Besides, the IC50 in assay [1] (hPBMC, R848 as stim, t = 20 h) was under 0.001 µM.

Take `Cn1c(=O)n(C2CCC(=O)NC2=O)c2ccc(C#CCOC3CCN(C[C@H]4CC[C@H](n5cc(NC(=O)c6cnn7ccc(N8C[C@H]9C[C@@H]8CO9)nc67)c(C(F)F)n5)CC4)CC3)cc21` (stereo partly drawn) [I-483]: the IC50 in assay [4] (96 h) was over 1 µM; in assay [1] (read-out: IL-6 Secretion in hPBMC, R848 as stim, t = 20 h: IC50) it was 0.001 to 0.01 µM.

Regarding `Cn1c(=O)n(C2CCC(=O)NC2=O)c2cccc(CCCOC3CCN(C[C@H]4CC[C@H](n5cc(NC(=O)c6cnn7ccc(N8C[C@H]9CC[C@@H](C8)O9)nc67)c(C(F)F)n5)CC4)CC3)c21` (stereo partly drawn) [I-521], in assay [4] (OCI-Ly10, 96 h), the IC50 is over 1 µM. Moreover, the DC50 in assay [3] was 0.01 to 0.1 µM; in assay [2] (setting [6]), under 0.01 µM.

As to `Cn1c(=O)n(C2CCC(=O)NC2=O)c2cccc(C#CCOC3CCN(C[C@H]4CC[C@H](n5cc(NC(=O)c6cnn7ccc(N8CCCOCC8)nc67)c(C(F)F)n5)CC4)CC3)c21` (stereo partly drawn) [I-522], in assay [4] (OCI-Ly10, 96 h), the IC50 is 0.1 to 0.5 µM. The DC50 in assay [3] and in assay [2] (setting [6]) was under 0.01 µM in each case.

As for `Cn1c(=O)n(C2CCC(=O)NC2=O)c2cccc(C#CCC3CCN(C[C@H]4CC[C@H](n5cc(NC(=O)c6cnn7ccc(N8CCCOCC8)nc67)c(C(F)F)n5)CC4)CC3)c21` (stereo partly drawn) [I-523], the IC50 in assay [4] (OCI-Ly10, 96 h) is over 1 µM. Also, the DC50 in assay [3] and in assay [2] (setting [6]) was under 0.01 µM each time.

Turning to `Cn1c(=O)n(C2CCC(=O)NC2=O)c2cccc(CCCC3CCN(C[C@H]4CC[C@H](n5cc(NC(=O)c6cnn7ccc(N8CCCOCC8)nc67)c(C(F)F)n5)CC4)CC3)c21` (stereo partly drawn) [I-524], the concentration for half-maximal inhibition (IC50) in assay [4] (OCI-Ly10, 96 h) was over 1 µM. Moreover, the DC50 in assay [3] and in assay [2] (setting [6]) was under 0.01 µM throughout.

With `C[C@@H]1CN(c2ccn3ncc(C(=O)NC4=NC([C@H]5CC[C@H](CN6CCC(CC#Cc7cccc8c7n(C)c(=O)n8C7CCC(=O)NC7=O)CC6)CC5)N=C4C(F)F)c3c2)C[C@@H](C)O1` (stereo partly drawn) [I-528], the values for the half-maximal degradation concentration (DC50) in assay [3] and in assay [2] (setting [6]) were 0.01 to 0.1 µM and under 0.01 µM, respectively. The IC50 in assay [1] (hPBMC, R848 as stim, t = 20 h) was in the range of 0.001 to 0.01 µM.

As to `C[C@@H]1CN(c2ccn3ncc(C(=O)NC4=NC([C@H]5CC[C@H](CN6CCC(CC#Cc7cccc8c7n(C)c(=O)n8C7CCC(=O)NC7=O)CC6)CC5)N=C4C(F)F)c3c2)C[C@H](C)O1` (stereo partly drawn) [I-530], the values for the DC50 in assay [3] and in assay [2] (setting [6]) were 0.01 to 0.1 µM and under 0.01 µM, respectively. The 50% inhibitory concentration (IC50) in assay [1] (hPBMC, R848 as stim, t = 20 h) is under 0.001 µM.

`C[C@@H]1CN(c2ccn3ncc(C(=O)NC4=NC([C@H]5CC[C@H](CN6CCC(CCCc7cccc8c7n(C)c(=O)n8C7CCC(=O)NC7=O)CC6)CC5)N=C4C(F)F)c3n2)C[C@@H](C)O1` (stereo partly drawn) [I-537]: the DC50 in assay [3] and in assay [2] (setting [6]) was under 0.01 µM each time. In assay [1] (hPBMC, R848 as stim, t = 20 h), this compound returned an IC50 of 0.001 to 0.01 µM.

For the compound `C[C@@H](C#Cc1cccc2c1n(C)c(=O)n2C1CCC(=O)NC1=O)OC1CCN(C[C@H]2CC[C@H](n3cc(NC(=O)c4cnn5ccc(N6C[C@H]7C[C@@H]6CO7)nc45)c(C(F)F)n3)CC2)CC1` (stereo partly drawn) [I-544], the concentration for half-maximal inhibition (IC50) in assay [4] (OCI-Ly10, 96 h) is over 1 µM. The figures for the DC50 in assay [3] and in assay [2] (setting [6]) were 0.01 to 0.1 µM and 0.1 to 1 µM, respectively.

On to `C[C@H](CCc1cccc2c1n(C)c(=O)n2C1CCC(=O)NC1=O)OC1CCN(C[C@H]2CC[C@H](n3cc(NC(=O)c4cnn5ccc(N6C[C@H]7C[C@@H]6CO7)nc45)c(C(F)F)n3)CC2)CC1` (stereo partly drawn) [I-557], for which the IC50 in assay [4] (OCI-Ly10, 96 h) was over 1 µM. Besides, the DC50 in assay [3] and in assay [2] (setting [6]) was under 0.01 µM each time.
